Results published in paper PMC6264549, “Synthesis and Biological Evaluation of 3-Substituted-indolin-2-one Derivatives Containing Chloropyrrole Moieties” (Molecules, 2011).

Assays:
[1] = system: non-small cell lung cancer (A549); experiment: MTT cell growth inhibition assay, A549; assay type: cell-based; details: Homo sapiens, 48 h, A549 cells, two days, read-out: IC50 ± SD A549
Procedure: (§1) The antitumor activities of 14a-r were evaluated in vitro on four tumor cell lines, including non-small cell lung cancer (A549), oral epithelial (KB), melanoma (K111) and large cell lung cancer cell lines (NCI-H460) by the MTT assay, and the results are summarized in Table 1.
(§2) Non-small cell lung cancer (A549), oral epithelial (KB), large cell lung cancer (NCI-H460) and melanoma cell lines (K111) were cultured in Dulbecco’s modified Eagle medium (GIBCO) containing 10% (v/v) inactivated newborn calf serum (Boren Bio-Pharmaceutical Co., Ltd.: Guangzhou, China), […] L-glutamine (SANGON), […] penicillin, 100 µg/mL streptomycin. Cells were grown in a 5% CO2 incubator at 37 °C.
(§3) The antitumor activities were determined by the MTT assay. Cells (2 × 10^3 cells/well) were seeded in 96-well plates. After incubation overnight, each compound, which was dissolved in dimethylsulfoxide (DMSO) and diluted with phosphate buffer solution (PBS), was added to each well and the cells were cultured for another two days at 37 °C. 20 μL (5 mg/mL) MTT solution was added to per well and the culture continued for another 3–4 h. The medium was removed and 100 μL DMSO was added to dissolve formazan crystals. Absorbance was measured at 492 nm using an ELISA reader (Thermo). The antitumor activities were expressed as IC50.

[2] = system: large cell lung cancer cell lines (NCI-H460); experiment: MTT cell growth inhibition assay, NCI-H460; assay type: cell-based; details: Homo sapiens, 48 h, NCI-H460 cells, two days, read-out: IC50 ± SD NCI-H460
Procedure: as §1, §2, §3

[3] = system: melanoma (K111); experiment: MTT cell growth inhibition assay, K111; assay type: cell-based; details: 48 h, K111 cells, two days, read-out: IC50 ± SD K111
Procedure: as §1, §2, §3

[4] = system: oral epithelial (KB); experiment: MTT cell growth inhibition assay, KB; assay type: cell-based; details: Homo sapiens, 48 h, KB cells, two days
Procedure: as §1, §2, §3

[5] = target: VEGFR2 tyrosine kinase (Homo sapiens, UniProt P35968); experiment: VEGFR2 inhibition assay (ELISA); assay type: biochemical; details: 5.0 µM ATP, Poly (Glu, Tyr)4:1 substrate, read-out: IC50 ± SD VEGFR2
Chain of VEGFR2 tyrosine kinase (P35968 20-1356): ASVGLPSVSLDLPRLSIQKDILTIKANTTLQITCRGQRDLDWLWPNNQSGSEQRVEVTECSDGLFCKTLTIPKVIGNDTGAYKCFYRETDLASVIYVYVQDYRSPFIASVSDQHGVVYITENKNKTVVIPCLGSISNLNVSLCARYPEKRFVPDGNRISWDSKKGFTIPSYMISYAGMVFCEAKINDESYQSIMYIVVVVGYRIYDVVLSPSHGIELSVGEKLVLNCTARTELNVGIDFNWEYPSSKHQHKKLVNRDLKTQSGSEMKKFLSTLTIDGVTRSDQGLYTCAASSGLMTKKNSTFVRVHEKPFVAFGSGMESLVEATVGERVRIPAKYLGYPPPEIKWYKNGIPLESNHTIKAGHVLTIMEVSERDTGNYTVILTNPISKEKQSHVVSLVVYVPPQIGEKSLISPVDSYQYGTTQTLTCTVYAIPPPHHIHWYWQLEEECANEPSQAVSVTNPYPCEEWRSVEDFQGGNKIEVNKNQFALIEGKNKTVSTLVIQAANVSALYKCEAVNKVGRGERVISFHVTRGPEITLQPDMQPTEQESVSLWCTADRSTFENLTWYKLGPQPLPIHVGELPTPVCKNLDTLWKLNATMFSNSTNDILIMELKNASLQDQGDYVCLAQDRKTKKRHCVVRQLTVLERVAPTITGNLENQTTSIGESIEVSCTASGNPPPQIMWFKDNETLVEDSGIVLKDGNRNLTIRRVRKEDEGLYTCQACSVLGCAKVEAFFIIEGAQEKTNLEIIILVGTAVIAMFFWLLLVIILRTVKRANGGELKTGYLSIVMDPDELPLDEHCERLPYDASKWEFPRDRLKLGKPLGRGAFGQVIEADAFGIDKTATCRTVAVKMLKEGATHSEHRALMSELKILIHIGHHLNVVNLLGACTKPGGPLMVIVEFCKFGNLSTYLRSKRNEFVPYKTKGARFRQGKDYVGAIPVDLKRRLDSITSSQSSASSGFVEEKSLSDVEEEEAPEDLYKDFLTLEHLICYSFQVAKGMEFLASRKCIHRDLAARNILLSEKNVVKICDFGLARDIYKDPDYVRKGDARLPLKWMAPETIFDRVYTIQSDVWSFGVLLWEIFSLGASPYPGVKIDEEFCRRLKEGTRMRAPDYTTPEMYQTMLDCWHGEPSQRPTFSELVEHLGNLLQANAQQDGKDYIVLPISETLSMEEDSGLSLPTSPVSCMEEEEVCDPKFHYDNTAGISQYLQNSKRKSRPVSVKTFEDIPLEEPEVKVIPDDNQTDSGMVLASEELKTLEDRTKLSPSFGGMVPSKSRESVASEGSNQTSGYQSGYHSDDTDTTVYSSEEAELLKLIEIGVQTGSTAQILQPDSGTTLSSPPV
Procedure: Seven compounds in the 14a–r series with low IC50 values on the tumor cell lines were evaluated for their inhibition of VEGFR2 using an enzyme-linked immunosorbent assay (ELISA), and the data are summarized in Table 2.
The VEGFR2 inhibition assay was performed by enzyme-linked immunosorbent assay (ELISA) in 96-well plates pre-coated with 2.5 µg/well Poly (Glu, Tyr)4:1 as a substrate. Each well was treated with 90 µL of 5.0 µM ATP (Amresco) solution and 10 µL of one of the seven compounds at varying concentrations, which were diluted in reaction buffer (50 mM HEPES pH 7.4, 20 mM MgCl2, 0.1 mM Na3VO4, 1 mM DTT). […] The reaction was initiated by adding 1 µL/well of VEGFR2 tyrosine kinase. After incubation for 1 h at 37 °C, the plates were washed three times with phosphate buffered saline containing 0.1% Tween-20 (T-PBS). Next, anti-phosphotyrosine (PY99; 1:1,000 dilution, 100 μL/well) antibody was added. After 1 h incubation at room temperature, the plates were washed three times, and goat anti-mouse IgG horseradish peroxidase (100 μL/well of 1:2,000 dilution) diluted in T-PBS was added. The plates were reincubated at room temperature for 1 h, and washed as before. Finally, color development solution (0.03% H2O2 and 2 mg/mL o-phenylenediamine in 0.1 M citrate buffer, pH 5.5, 100 µL/well) was added and the plates were incubated at room temperature until color emerged. The reaction was terminated by the addition of 2 M H2SO4 (50 µL/well), and A492 was measured using a tunable wavelength microplate reader (Molecular Devices SPECTRAMAX190). The inhibition rate was calculated using the equation: [1 − (A492/A492 control)] × 100%.

[6] = target: hERG potassium currents (Homo sapiens, UniProt Q12809); experiment: Inhibition of hERG potassium currents in HEK239 cells (cardiotoxicity)
Chain of hERG potassium currents (Q12809 whole entry): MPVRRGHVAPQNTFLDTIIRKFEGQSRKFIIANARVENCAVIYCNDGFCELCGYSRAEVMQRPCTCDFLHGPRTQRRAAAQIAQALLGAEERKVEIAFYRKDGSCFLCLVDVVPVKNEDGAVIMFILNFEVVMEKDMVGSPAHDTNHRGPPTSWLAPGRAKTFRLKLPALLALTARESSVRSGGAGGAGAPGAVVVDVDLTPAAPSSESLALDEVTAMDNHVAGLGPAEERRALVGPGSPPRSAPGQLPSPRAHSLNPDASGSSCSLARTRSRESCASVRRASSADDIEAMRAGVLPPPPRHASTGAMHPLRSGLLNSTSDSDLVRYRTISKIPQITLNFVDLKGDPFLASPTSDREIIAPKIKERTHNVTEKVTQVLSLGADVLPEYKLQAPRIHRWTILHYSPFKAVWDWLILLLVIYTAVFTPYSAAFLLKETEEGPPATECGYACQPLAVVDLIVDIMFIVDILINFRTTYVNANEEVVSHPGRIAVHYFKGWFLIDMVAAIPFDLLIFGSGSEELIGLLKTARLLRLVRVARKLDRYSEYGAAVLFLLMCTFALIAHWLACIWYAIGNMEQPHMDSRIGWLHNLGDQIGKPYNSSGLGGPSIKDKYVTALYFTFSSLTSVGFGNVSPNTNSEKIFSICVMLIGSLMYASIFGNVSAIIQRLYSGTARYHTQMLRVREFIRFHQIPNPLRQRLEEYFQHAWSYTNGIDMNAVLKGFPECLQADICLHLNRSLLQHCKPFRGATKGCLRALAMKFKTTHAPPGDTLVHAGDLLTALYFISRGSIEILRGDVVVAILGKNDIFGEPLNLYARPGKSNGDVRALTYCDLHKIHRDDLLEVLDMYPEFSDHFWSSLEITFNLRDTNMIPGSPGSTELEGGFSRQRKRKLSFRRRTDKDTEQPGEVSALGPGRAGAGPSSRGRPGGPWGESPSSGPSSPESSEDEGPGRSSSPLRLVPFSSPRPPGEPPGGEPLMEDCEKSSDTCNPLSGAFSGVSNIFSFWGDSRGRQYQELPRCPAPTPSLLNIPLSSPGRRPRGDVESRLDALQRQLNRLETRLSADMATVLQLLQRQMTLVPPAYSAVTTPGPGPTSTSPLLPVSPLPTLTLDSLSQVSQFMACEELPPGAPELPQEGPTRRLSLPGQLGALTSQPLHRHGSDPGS

| Compound | IC50 [1] [nM] | IC50 [2] [nM] | IC50 [3] [nM] | IC50 [4] [nM] | melting point [°C] | IC50 [5] [nM] | IC50 [6] [nM] |
| --- | --- | --- | --- | --- | --- | --- | --- |
| Cc1[nH]c(/C=C2\C(=O)Nc3ccc(F)cc32)c(Cl)c1C(=O)N1CCN(C)CC1 [Compound 14b, (Z)-3-((3-Chloro-5-methyl-4-(4-methylpiperazine-1-carbonyl)-1H-pyrrol-2-yl)methylene)-5-fluoroindolin-2-one] | > 100000 | > 100000 | > 100000 | > 100000 | 276.7 to 278.5 |  |  |
| CCN(CC)CCNC(=O)c1c(Cl)[nH]c(/C=C2\C(=O)Nc3ccc(Br)cc32)c1C [Compound 14j, (Z)-5-((5-bromo-2-oxoindolin-3-ylidene)methyl)-2-chloro-N-(2-(diethylamino)ethyl)-4-methyl-1H-pyrrole-3-carboxamide] | > 100000 | > 100000 | > 100000 | 34200 ± 2960 | 248.1 to 248.5 |  |  |
| CCN(CC)CCNC(=O)c1c(C)[nH]c(/C=C2\C(=O)Nc3ccc(C)cc32)c1Cl [Compound 14l, (Z)-4-Chloro-N-(2-(diethylamino)ethyl)-2-methyl-5-((5-methyl-2-oxoindolin-3-ylidene)methyl)-1H-pyrrole-3-carboxamide] | > 100000 | > 100000 | > 100000 | 64400 ± 7510 | 238.2 to 240 |  |  |
| CCNCCNC(=O)c1c(C)[nH]c(/C=C2\C(=O)Nc3ccc(F)cc32)c1Cl [Compound 14g, (Z)-4-Chloro-N-(2-(ethylamino)ethyl)-5-((5-fluoro-2-oxoindolin-3-ylidene)methyl)-2-methyl-1H-pyrrole-3-carboxamide] | 1030 ± 90 | 1410 ± 90 | 1190 ± 210 | 670 ± 80 | 211 to 211.8 | 5 ± 1.1 | 430 |
| Cc1[nH]c(/C=C2\C(=O)Nc3ccc(F)cc32)c(Cl)c1C(=O)NCCCN(C)C [Compound 14e, (Z)-4-Chloro-N-(3-(dimethylamino)propyl)-5-((5-fluoro-2-oxoindolin-3-ylidene)methyl)-2-methyl-1H-pyrrole-3-carboxamide] | 2330 ± 310 | > 100000 | > 100000 | 2880 ± 330 | 235.1 to 237.3 |  |  |
| CCN(CC)CCNC(=O)c1c(C)[nH]c(/C=C2\C(=O)Nc3ccccc32)c1Cl [Compound 14k, (Z)-4-Chloro-N-(2-(diethylamino)ethyl)-2-methyl-5-((2-oxoindolin-3-ylidene)methyl)-1H-pyrrole-3-carboxamide] | > 100000 | > 100000 | > 100000 | 5090 ± 1010 | 238.5 to 240.1 |  |  |
| Cc1[nH]c(/C=C2\C(=O)Nc3ccc(F)cc32)c(Cl)c1C(=O)NCCN1CCOCC1 [Compound 14a, (Z)-4-Chloro-5-((5-fluoro-2-oxoindolin-3-ylidene)methyl)-2-methyl-N-(2-morpholinoethyl)-1H-pyrrole-3-carboxamide] | 1470 ± 130 | > 100000 | > 100000 | 52900 ± 7930 | 268.5 to 269.7 |  |  |
| CCN(CC)CCNC(=O)c1c(Cl)[nH]c(/C=C2\C(=O)Nc3ccc(F)cc32)c1Cl [Compound 14m, (Z)-2,4-Dichloro-N-(2-(diethylamino)ethyl)-5-((5-fluoro-2-oxoindolin-3-ylidene)methyl)-1H-pyrrole-3-carboxamide] | > 100000 | > 100000 | > 100000 | > 100000 | 269.1 to 270.3 |  |  |
| CCN(CC)CCNC(=O)c1c(C)[nH]c(/C=C2\C(=O)Nc3ccc(Cl)cc32)c1Cl [Compound 14i, (Z)-4-Chloro-5-((5-chloro-2-oxoindolin-3-ylidene)methyl)-N-(2-(diethylamino)ethyl)-2-methyl-1H-pyrrole-3-carboxamide] | 320 ± 30 | > 100000 | > 100000 | 1150 ± 200 | 246 to 247 | 11.2 ± 2.6 |  |
| CCNCCNC(=O)c1c(Cl)[nH]c(/C=C2\C(=O)Nc3ccc(F)cc32)c1CC [Compound 14r, (Z)-2-Chloro-4-ethyl-N-(2-(ethylamino)ethyl)-5-((5-fluoro-2-oxoindolin-3-ylidene)methyl)-1H-pyrrole-3-carboxamide] | 1490 ± 110 | 1220 ± 100 | 3720 ± 460 | 1430 ± 210 | 232 to 233.1 | 8.7 ± 1.3 |  |

More lines, main results first:

| IC50 [1] [nM] | IC50 [2] [nM] | IC50 [3] [nM] | IC50 [4] [nM] | melting point [°C] | IC50 [5] [nM] | Compound | IC50 [6] [nM] |
| --- | --- | --- | --- | --- | --- | --- | --- |
| 2140 ± 260 | > 100000 | > 100000 | 1510 ± 110 | 243.4 to 244 |  | CCN(CC)CCNC(=O)c1c(Cl)[nH]c(/C=C2\C(=O)Nc3ccc(F)cc32)c1C [Compound 14o, (Z)-2-Chloro-N-(2-(diethylamino)ethyl)-5-((5-fluoro-2-oxoindolin-3-ylidene)methyl)-4-methyl-1H-pyrrole-3-carboxamide] |  |
| 2430 ± 260 | 1410 ± 170 | 3410 ± 520 | 1350 ± 120 | 230.5 to 232 | 6.8 ± 1.8 | Cc1[nH]c(/C=C2\C(=O)Nc3ccc(F)cc32)c(Cl)c1C(=O)NC1CNC1 [Compound 14c, (Z)-N-(azetidin-3-yl)-4-chloro-5-((5-fluoro-2-oxoindolin-3-ylidene)methyl)-2-methyl-1H-pyrrole-3-carboxamide] |  |
| 1410 ± 90 | 1660 ± 230 | 1240 ± 160 | 690 ± 70 | 215 to 216.8 | 6 ± 1.2 | CCNCCNC(=O)c1c(Cl)[nH]c(/C=C2\C(=O)Nc3ccc(F)cc32)c1C [Compound 14p, (Z)-2-Chloro-N-(2-(ethylamino)ethyl)-5-((5-fluoro-2-oxoindolin-3-ylidene)methyl)-4-methyl-1H-pyrrole-3-carboxamide] |  |
| > 100000 | > 100000 | > 100000 | > 100000 | > 290 |  | CCCNC(=O)c1c(C)[nH]c(/C=C2\C(=O)Nc3ccc(F)cc32)c1Cl [Compound 14d, (Z)-4-Chloro-5-((5-fluoro-2-oxoindolin-3-ylidene)methyl)-2-methyl-N-propyl-1H-pyrrole-3-carboxamide] |  |
| 3370 ± 270 | > 100000 | > 100000 | 4230 ± 650 | 233.5 to 234.7 |  | CCN(CC)CCNC(=O)c1cc(/C=C2\C(=O)Nc3ccc(F)cc32)[nH]c1Cl [Compound 14n, (Z)-2-Chloro-N-(2-(diethylamino)ethyl)-5-((5-fluoro-2-oxoindolin-3-ylidene)methyl)-1H-pyrrole-3-carboxamide] |  |
| 1690 ± 170 | 1670 ± 180 | 1350 ± 280 | 1560 ± 80 | 271.8 to 274.2 | 6.2 ± 0.8 | Cc1[nH]c(/C=C2\C(=O)Nc3ccc(F)cc32)c(Cl)c1C(=O)NCCN(C)C [Compound 14f, (Z)-4-Chloro-N-(2-(dimethylamino)ethyl)-5-((5-fluoro-2-oxoindolin-3-ylidene)methyl)-2-methyl-1H-pyrrole-3-carboxamide] |  |
| 16700 ± 2700 | > 100000 | > 100000 | 34400 ± 2900 | 245.2 to 246.8 |  | CCc1c(/C=C2\C(=O)Nc3ccc(F)cc32)[nH]c(Cl)c1C(=O)NCCN(CC)CC [Compound 14q, (Z)-2-Chloro-N-(2-(diethylamino)ethyl)-4-ethyl-5-((5-fluoro-2-oxoindolin-3-ylidene)methyl)-1H-pyrrole-3-carboxamide] |  |
